According to patent US9695155B2, “Herbicidal substituted pyrimidinyloxy benzene compounds” (E. I. DU PONT DE NEMOURS AND COMPANY, priority 2013, dated 2017):

Columns and labels:
johnsongrass [1] = experiment: Test C preemergence; assay type: in vivo, Sorghum halepense; conditions: for Johnsongrass plant response rating: preemergence; for Plant response rating, Johnsongrass: Preemergence, 31 g ai/ha, scale 0 to 100, 0 no effect, 100 complete control
Summary of the method: (§1)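 Seeds were sown in loam–sand blend and sprayed preemergence, while plants at 1- to 4-leaf stage (2–18 cm) in peat-based medium received postemergence sprays; test chemicals were formulated in a non-phytotoxic solvent with surfactant. After 13–15 days in a greenhouse, injury was rated visually against controls, 0 (no effect) to 100 (complete control).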

galium = experiment: Test C preemergence; assay type: in vivo, Galium aparine; conditions: for Galium plant response rating: preemergence; for Plant response rating, Galium: Preemergence, 31 g ai/ha, scale 0 to 100, 0 no effect, 100 complete control
Summary of the method: as §1

waterhemp = experiment: Test C postemergence; assay type: in vivo, Amaranthus rudis; conditions: for Plant response rating, Waterhemp: scale 0 to 100 (0 no effect, 100 complete control)
Summary of the method: as §1

soybean = experiment: Test C postemergence; assay type: in vivo, Glycine max; conditions: for Plant response rating, Soybean: scale 0 to 100 (0 no effect, 100 complete control)
Summary of the method: as §1

giant foxtail [2] = experiment: Test A preemergence; assay type: in vivo, Setaria faberii; conditions: for Plant response rating, Foxtail, Giant: 125 g ai/ha, 0 to 100 scale where 0 is no effect and 100 is complete control; for Foxtail, Giant plant response rating: 500 g ai/ha, 0 to 100 scale, 0 no effect, 100 complete control, approx. 10 days
Summary of the method: (§2)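 Visual injury scored 0–100 (100 = complete control) against untreated controls about 10 days after treatment in a greenhouse. Test chemicals, formulated with surfactant in non-phytotoxic solvent, were sprayed on soil preemergence or on 2-10 cm, one- to two-leaf plants postemergence.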

lambsquarters = experiment: Test C preemergence; assay type: in vivo, Chenopodium album; conditions: for Lambsquarters plant response rating: preemergence; for Plant response rating, Lambsquarters: Preemergence, 31 g ai/ha, scale 0 to 100, 0 no effect, 100 complete control
Summary of the method: as §1

large (Lg) crabgrass [3] = experiment: Test C preemergence; assay type: in vivo, Digitaria sanguinalis; conditions: for Crabgrass, Large plant response rating: preemergence; for Plant response rating, Crabgrass, Large: Preemergence, 31 g ai/ha, scale 0 to 100, 0 no effect, 100 complete control
Summary of the method: as §1

large (Lg) crabgrass [4] = experiment: Test A postemergence; assay type: in vivo, Digitaria sanguinalis
Summary of the method: as §2

johnsongrass [5] = experiment: Test C postemergence; assay type: in vivo, Sorghum halepense
Summary of the method: as §1

yellow nutsedge [6] = experiment: Test C preemergence; assay type: in vivo, Cyperus esculentus; conditions: for Nutsedge, Yellow plant response rating: preemergence; for Plant response rating, Nutsedge, Yellow: Preemergence, 31 g ai/ha, scale 0 to 100, 0 no effect, 100 complete control
Summary of the method: as §1

giant foxtail [7] = experiment: Test C preemergence; assay type: in vivo, Setaria faberii; conditions: for Foxtail, Giant plant response rating: preemergence; for Plant response rating, Foxtail, Giant: Preemergence, 31 g ai/ha, scale 0 to 100, 0 no effect, 100 complete control
Summary of the method: as §1

chickweed = experiment: Test C postemergence; assay type: in vivo, Stellaria media
Summary of the method: as §1

yellow nutsedge [8] = experiment: Test C postemergence; assay type: in vivo, Cyperus esculentus; conditions: for Plant response rating, Nutsedge, Yellow: scale 0 to 100 (0 no effect, 100 complete control)
Summary of the method: as §1

giant foxtail [9] = experiment: Test C postemergence; assay type: in vivo, Setaria faberii
Summary of the method: as §1

[10] = 16 g ai/ha, scale 0 to 100 (0 no effect, 100 complete control)
[11] = 62 g ai/ha, scale 0 (no effect) to 100 (complete control)
[12] = 125 g ai/ha, scale 0 (no effect) to 100 (complete control)
[13] = 125 g ai/ha, postemergence, visual rating
[14] = 125 g ai/ha, 0 to 100 scale where 0 is no effect and 100 is complete control
[15] = 16 g ai/ha, postemergence, visual rating, scale 0 to 100 (0 no effect, 100 complete control), 13 to 15 days
[16] = 125 g ai/ha, postemergence, visual rating, scale 0 to 100 (0 no effect, 100 complete control)
[17] = Postemergence, 62 g ai/ha, scale 0 to 100 (0 no effect, 100 complete control)
[18] = 250 g ai/ha, scale 0 (no effect) to 100 (complete control)
[19] = Postemergence, 31 g ai/ha, 13 to 15 days
[20] = Postemergence, 31 g ai/ha, scale 0 to 100 (0 no effect, 100 complete control), 13 to 15 days

## N#Cc1cnn(-c2c(C#N)cccc2Oc2ncc(F)cn2)c1 [Compound 111]
Johnsongrass [1]; [10]
  Johnsongrass plant response rating: 0
Johnsongrass [1]; [11]
  Johnsongrass plant response rating: 25
Johnsongrass [1]; [12]
  Johnsongrass plant response rating: 80
Johnsongrass [1]
  Plant response rating, Johnsongrass: 5
galium; [10]
  Galium plant response rating: 90
galium; [11]
  Galium plant response rating: 100
galium; [12]
  Galium plant response rating: 75
galium
  Plant response rating, Galium: 100
waterhemp; [13]
  Plant response rating, Waterhemp: 90
waterhemp; Postemergence, 62 g ai/ha
  Plant response rating, Waterhemp: 80
soybean; [13]
  Plant response rating, Soybean: 95
soybean; Postemergence, 62 g ai/ha
  Plant response rating, Soybean: 80
Giant foxtail [2]
  Plant response rating, Foxtail, Giant: 100
  Foxtail, Giant plant response rating: 100
lambsquarters; [10]
  Lambsquarters plant response rating: 50
lambsquarters; [11]
  Lambsquarters plant response rating: 100
lambsquarters; [12]
  Lambsquarters plant response rating: 100
lambsquarters
  Plant response rating, Lambsquarters: 100
Large (Lg) crabgrass [3]; [10]
  Crabgrass, Large plant response rating: 98
Large (Lg) crabgrass [3]; [11]
  Crabgrass, Large plant response rating: 100
Large (Lg) crabgrass [3]; [12]
  Crabgrass, Large plant response rating: 100
Large (Lg) crabgrass [3]
  Plant response rating, Crabgrass, Large: 100
Large (Lg) crabgrass [4]; [14]
  Plant response rating, Crabgrass, Large: 60
Large (Lg) crabgrass [4]; 500 g ai/ha, 0 to 100 scale where 0 is no effect and 100 is complete control
  Plant response rating, Crabgrass, Large: 90
Johnsongrass [5]; [15]
  Johnsongrass plant response rating: 5
Johnsongrass [5]; [16]
  Plant response rating, Johnsongrass: 10
Johnsongrass [5]; [17]
  Plant response rating, Johnsongrass: 5
Yellow nutsedge [6]; [10]
  Nutsedge, Yellow plant response rating: 0
Yellow nutsedge [6]; [11]
  Nutsedge, Yellow plant response rating: 15
Yellow nutsedge [6]; [12]
  Nutsedge, Yellow plant response rating: 50
Yellow nutsedge [6]
  Plant response rating, Nutsedge, Yellow: 0
Giant foxtail [7]; [10]
  Foxtail, Giant plant response rating: 15
Giant foxtail [7]; [11]
  Foxtail, Giant plant response rating: 100
Giant foxtail [7]; [12]
  Foxtail, Giant plant response rating: 100
Giant foxtail [7]
  Plant response rating, Foxtail, Giant: 100
chickweed; [15]
  Chickweed plant response rating: 50
chickweed; [16]
  Plant response rating, Chickweed: 95
chickweed; [17]
  Plant response rating, Chickweed: 75
Yellow nutsedge [8]; [13]
  Plant response rating, Nutsedge, Yellow: 5
Yellow nutsedge [8]; Postemergence, 62 g ai/ha
  Plant response rating, Nutsedge, Yellow: 5
Giant foxtail [9]; [15]
  Foxtail, Giant plant response rating: 20
Giant foxtail [9]; [16]
  Plant response rating, Foxtail, Giant: 65
Giant foxtail [9]; [17]
  Plant response rating, Foxtail, Giant: 35

## N#Cc1cccc(Oc2ncc(F)cn2)c1-n1cc(Cl)cn1 [Compound 73]
Johnsongrass [1]; [11]
  Johnsongrass plant response rating: 35
Johnsongrass [1]; [12]
  Johnsongrass plant response rating: 75
Johnsongrass [1]; [18]
  Johnsongrass plant response rating: 98
Johnsongrass [1]
  Plant response rating, Johnsongrass: 10
galium; [11]
  Galium plant response rating: 90
galium; [12]
  Galium plant response rating: 90
galium; [18]
  Galium plant response rating: 95
galium
  Plant response rating, Galium: 85
waterhemp; 125 g ai/ha, postemergence
  Plant response rating (0 to 100), Waterhemp: 75
waterhemp; 250 g ai/ha, postemergence
  Plant response rating (0 to 100), Waterhemp: 90
waterhemp; [19]
  Plant response rating, Waterhemp: 50
waterhemp; Postemergence, 62 g ai/ha
  Plant response rating, Waterhemp: 60
soybean; 125 g ai/ha, postemergence
  Plant response rating (0 to 100), Soybean: 80
soybean; 250 g ai/ha, postemergence
  Plant response rating (0 to 100), Soybean: 90
soybean; [19]
  Plant response rating, Soybean: 40
soybean; Postemergence, 62 g ai/ha
  Plant response rating, Soybean: 70
Giant foxtail [2]
  Plant response rating, Foxtail, Giant: 100
  Foxtail, Giant plant response rating: 100
lambsquarters; [11]
  Lambsquarters plant response rating: 98
lambsquarters; [12]
  Lambsquarters plant response rating: 98
lambsquarters; [18]
  Lambsquarters plant response rating: 98
lambsquarters
  Plant response rating, Lambsquarters: 60
Large (Lg) crabgrass [3]; [11]
  Crabgrass, Large plant response rating: 100
Large (Lg) crabgrass [3]; [12]
  Crabgrass, Large plant response rating: 100
Large (Lg) crabgrass [3]; [18]
  Crabgrass, Large plant response rating: 100
Large (Lg) crabgrass [3]
  Plant response rating, Crabgrass, Large: 100
Large (Lg) crabgrass [4]; [14]
  Plant response rating, Crabgrass, Large: 90
Large (Lg) crabgrass [4]; 500 g ai/ha, 0 to 100 scale, 0 no effect, 100 complete control
  Plant response rating, Crabgrass, Large: 100
Johnsongrass [5]; 125 g ai/ha, postemergence
  Plant response rating (0 to 100), Johnsongrass: 5
Johnsongrass [5]; 250 g ai/ha, postemergence
  Plant response rating (0 to 100), Johnsongrass: 25
Johnsongrass [5]; [20]
  Plant response rating, Johnsongrass: 0
Johnsongrass [5]; [17]
  Plant response rating, Johnsongrass: 5
Yellow nutsedge [6]; [11]
  Nutsedge, Yellow plant response rating: 0
Yellow nutsedge [6]; [12]
  Nutsedge, Yellow plant response rating: 5
Yellow nutsedge [6]; [18]
  Nutsedge, Yellow plant response rating: 15
Yellow nutsedge [6]
  Plant response rating, Nutsedge, Yellow: 0
Giant foxtail [7]; [11]
  Foxtail, Giant plant response rating: 100
Giant foxtail [7]; [12]
  Foxtail, Giant plant response rating: 100
Giant foxtail [7]; [18]
  Foxtail, Giant plant response rating: 100
Giant foxtail [7]
  Plant response rating, Foxtail, Giant: 85
chickweed; 125 g ai/ha, postemergence
  Plant response rating (0 to 100), Chickweed: 50
chickweed; 250 g ai/ha, postemergence
  Plant response rating (0 to 100), Chickweed: 80
chickweed; [20]
  Plant response rating, Chickweed: 50
chickweed; [17]
  Plant response rating, Chickweed: 50
Yellow nutsedge [8]; 125 g ai/ha, postemergence
  Plant response rating (0 to 100), Nutsedge, Yellow: 5
Yellow nutsedge [8]; 250 g ai/ha, postemergence
  Plant response rating (0 to 100), Nutsedge, Yellow: 5
Yellow nutsedge [8]; [19]
  Plant response rating, Nutsedge, Yellow: 0
Yellow nutsedge [8]; Postemergence, 62 g ai/ha
  Plant response rating, Nutsedge, Yellow: 0
Giant foxtail [9]; 125 g ai/ha, postemergence
  Plant response rating (0 to 100), Foxtail, Giant: 10
Giant foxtail [9]; 250 g ai/ha, postemergence
  Plant response rating (0 to 100), Foxtail, Giant: 30
Giant foxtail [9]; [20]
  Plant response rating, Foxtail, Giant: 0
Giant foxtail [9]; [17]
  Plant response rating, Foxtail, Giant: 5
